Tests used:
Experiment in all cases: relative viability (nuclei count vs DMSO), 5 days (fraction); higher = more cells survive
CPI-613 = compound: O=C(O)CCCCC(CCSCc1ccccc1)SCc1ccccc1 [CPI-613]
Method in brief: (§1)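 A plate was accepted only when its control CV was below 25% and the cells had doubled at least once. Viability is defined from nuclear counts as treated wells divided by vehicle wells, with the median taken across plates. That median covers lung cancer cell lines grown in 1536-well plates, dosed by pinning at five √10-spaced library-drug concentrations, and counted in MetaXpress from 4× Hoechst images after 5 days.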

Tivozanib = compound: COc1cc2nccc(Oc3ccc(NC(=O)Nc4cc(C)on4)c(Cl)c3)c2cc1OC [Tivozanib]
Method in brief: as §1

Cytarabine = compound: Nc1ccn([C@@H]2O[C@H](CO)[C@@H](O)[C@@H]2O)c(=O)n1 [Cytarabine]
Method in brief: as §1

Docetaxel = compound: CC(=O)O[C@@]12CO[C@@H]1C[C@H](O)[C@@]1(C)C(=O)[C@H](O)C3=C(C)[C@@H](OC(=O)[C@H](O)[C@@H](NC(=O)OC(C)(C)C)c4ccccc4)C[C@@](O)([C@@H](OC(=O)c4ccccc4)[C@H]21)C3(C)C [Docetaxel]
Method in brief: as §1

JQ1 = compound: Cc1sc2c(c1C)C(c1ccc(Cl)cc1)=N[C@@H](CC(=O)OC(C)(C)C)c1nnc(C)n1-2 [JQ1]
Method in brief: as §1

[1] = compound: Cc1cnc(-c2cnc(NCCNc3ccc(C#N)cn3)nc2-c2ccc(Cl)cc2Cl)[nH]1
Method in brief: as §1

Pimozide = compound: O=c1[nH]c2ccccc2n1C1CCN(CCCC(c2ccc(F)cc2)c2ccc(F)cc2)CC1 [Pimozide]
Method in brief: as §1

| Cell Line | relative viability (CPI-613; 5 µM) | relative viability (CPI-613; 15.81 µM) | relative viability (CPI-613; 50 µM) | relative viability (CPI-613; 158.11 µM) | relative viability (CPI-613; 500 µM) | relative viability (Tivozanib; 0.005 µM) | relative viability (Tivozanib; 0.01581 µM) | relative viability (Tivozanib; 0.05 µM) | relative viability (Tivozanib; 0.1581 µM) | relative viability (Tivozanib; 0.5 µM) | relative viability (Cytarabine; 0.005 µM) | relative viability (Cytarabine; 0.01581 µM) | relative viability (Cytarabine; 0.05 µM) | relative viability (Cytarabine; 0.1581 µM) | relative viability (Cytarabine; 0.5 µM) | relative viability (Docetaxel; 0.0002 µM) | relative viability (Docetaxel; 0.000632 µM) | relative viability (Docetaxel; 0.002 µM) | relative viability (Docetaxel; 0.006325 µM) | relative viability (Docetaxel; 0.02 µM) | relative viability (JQ1; 0.04 µM) | relative viability (JQ1; 0.1265 µM) | relative viability (JQ1; 0.4 µM) | relative viability (JQ1; 1.265 µM) | relative viability (JQ1; 4 µM) | relative viability ([1]; 0.08 µM) | relative viability ([1]; 0.253 µM) | relative viability ([1]; 0.8 µM) | relative viability ([1]; 2.53 µM) | relative viability (Pimozide; 0.08 µM) | relative viability (Pimozide; 0.253 µM) | relative viability (Pimozide; 0.8 µM) | relative viability (Pimozide; 2.53 µM) | relative viability (Pimozide; 8 µM) |
| --- | --- | --- | --- | --- | --- | --- | --- | --- | --- | --- | --- | --- | --- | --- | --- | --- | --- | --- | --- | --- | --- | --- | --- | --- | --- | --- | --- | --- | --- | --- | --- | --- | --- | --- |
| NCI-H1355 | 0.963 | 0.95 | 0.949 | 0.735 | 0.0943 | 0.941 | 0.938 | 1.05 | 0.702 | 0.897 | 0.89 | 0.922 | 0.758 | 0.489 | 0.302 | 0.982 | 0.91 | 0.517 | 0.272 | 0.227 | 0.963 | 0.951 | 0.917 | 0.629 | 0.535 | 0.995 | 0.874 | 0.939 | 0.907 | 0.968 | 0.964 | 0.954 | 0.956 | 0.907 |
| NCI-H1395 | 0.993 | 0.806 | 0.897 | 0.84 | 0.8 | 0.738 | 1.04 | 1 | 0.736 | 0.677 | 0.826 | 0.775 | 0.567 | 0.447 | 0.354 | 0.933 | 0.861 | 0.676 | 0.39 | 0.268 | 0.849 | 0.734 | 0.702 | 0.516 | 0.547 | 1.08 | 0.84 | 0.818 | 0.837 | 0.918 | 0.84 | 0.822 | 0.878 | 0.918 |
| NCI-H1437 | 0.96 | 0.898 | 0.948 | 0.345 | 0.0955 | 0.968 | 0.971 | 0.988 | 0.982 | 0.88 | 0.79 | 0.64 | 0.494 | 0.243 | 0.206 | 0.914 | 0.765 | 0.457 | 0.281 | 0.158 | 0.92 | 0.792 | 0.762 | 0.484 | 0.415 | 1.02 | 0.928 | 0.98 | 1 | 0.991 | 0.969 | 0.959 | 0.904 | 0.723 |
| NCI-H1563 | 1.05 | 0.957 | 0.996 | 0.531 | 0.307 | 0.958 | 1.05 | 0.975 | 0.95 | 1 | 0.936 | 0.974 | 0.971 | 0.835 | 0.771 | 0.881 | 0.974 | 1.08 | 0.744 | 0.593 | 0.898 | 0.785 | 0.778 | 0.648 | 0.661 | 1.03 | 0.999 | 0.934 | 1.09 | 0.952 | 1.03 | 0.93 | 0.869 | 0.867 |
| NCI-H1623 | 1.07 | 0.99 | 1.13 | 0.743 | 0.867 | 1.05 | 0.986 | 1.03 | 0.714 | 0.986 | 0.828 | 0.592 | 0.41 | 0.25 | 0.216 | 0.889 | 0.957 | 0.601 | 0.424 | 0.264 | 0.961 | 0.82 | 0.908 | 0.557 | 0.54 | 1.06 | 0.957 | 0.921 | 0.947 | 0.675 | 0.916 | 0.902 | 0.939 | 0.932 |
| NCI-H1648 | 0.818 | 0.768 | 1.11 | 0.393 | 0.577 | 0.838 | 0.918 | 1 | 0.886 | 0.716 | 0.69 | 0.734 | 0.813 | 0.443 | 0.611 | 0.861 | 0.925 | 0.494 | 0.269 | 0.179 | 0.89 | 0.753 | 0.434 | 0.294 | 0.184 | 1.11 | 0.801 | 0.951 | 0.76 | 1.01 | 0.641 | 0.822 | 0.8 | 0.972 |
| NCI-H1650 | 0.877 | 0.776 | 0.942 | 0.137 | 0.0508 | 0.786 | 0.964 | 0.941 | 0.946 | 0.779 | 0.793 | 0.633 | 0.514 | 0.224 | 0.225 | 0.705 | 0.37 | 0.301 | 0.205 | 0.146 | 0.808 | 0.68 | 0.578 | 0.217 | 0.21 | 1 | 0.812 | 0.904 | 0.761 | 0.719 | 0.893 | 0.883 | 0.887 | 0.809 |
| NCI-H1651 | 0.995 | 0.947 | 0.93 | 0.769 | 0.527 | 0.941 | 0.951 | 1.05 | 0.882 | 0.98 | 1.07 | 0.972 | 0.986 | 0.664 | 0.476 | 0.858 | 0.979 | 0.671 | 0.198 | 0.14 | 0.908 | 0.838 | 0.708 | 0.606 | 0.546 | 0.975 | 0.924 | 0.982 | 1.02 | 0.977 | 1 | 0.964 | 0.913 | 0.973 |
| NCI-H1666 | 0.964 | 0.945 | 0.837 | 0.696 | 0.323 | 0.965 | 0.965 | 1.02 | 0.99 | 1.02 | 1 | 0.849 | 0.803 | 0.56 | 0.573 | 0.86 | 0.876 | 0.616 | 0.6 | 0.421 | 0.94 | 0.965 | 0.848 | 0.711 | 0.64 | 0.983 | 0.929 | 1.06 | 0.998 | 0.953 | 0.983 | 0.934 | 0.909 | 0.909 |
